Experimental data reported in patent publication US20060052453A1, “Agent for treating Parkinson's disease comprising astrocyte function-improving agent as active ingredient” (priority 2000, published 2006).

Columns and labels:
[1] = test system: Experimental Model of Parkinson's Disease Induced by Administration of MPTP; experiment: Experimental model of Parkinson's disease induced by administration of MPTP; striatal dopamine and DOPAC content by HPLC; type: in vivo, mice; settings: for DOPAC content / Dopamine content: average ± standard deviation
Procedure: Improvement Effect of the Compound of the Present Invention in Experimental Model of Parkinson's Disease Induced by Administration of MPTP Male C57BL/6 mice (body weight: 20 to 28 g) were divided into groups each having 6 to 12 animals. Without anesthetizing, MPTP (10 mg/kg; 1-methyl-4-phenyl-1,2,3,6-tetrahydropyridine hydrochloride) was intraperitoneally administered to the mice 4 times at intervals of 1 hour (Brain Res., 824: 224-231 (1999)). To the models thus prepared, Compound A of the present invention ((R)-2-propyloctanoic acid) was administered after 1, 6, 24 and 48 hours. Three days after the final administration, striata of the mice were collected. After weighing, the striata were immediately frozen and stored. Then, dopamine content and DOPAC (3,4-dihydroxypyenylacetate) content were measured by HPLC in a conventional manner and evaluated. […] Dunnett's multiple comparison test (both sides) was performed on the basis of the data of the group with the administration of MPTP alone. The values in Table 1 are shown by the average±the standard deviation.

dogs = experiment: Single intravenous dose toxicity in dogs; type: in vivo; settings: single dose of 100 mg/kg
Description: It has been confirmed that the compounds of the present invention represented by formula (I) have such low toxicity as being sufficiently safe in using as drugs.

[2] = Compound A alone 30 mg/kg, no MPTP, male C57BL/6 mice, striatum
[3] = MPTP (10 mg/kg i.p. x4) + compound A 3 mg/kg at 1, 6, 24 and 48 hours, striatum 3 days after final administration
[4] = MPTP (10 mg/kg i.p. x4) + compound A 10 mg/kg at 1, 6, 24 and 48 hours, striatum 3 days after final administration
[5] = MPTP (10 mg/kg i.p. x4) + compound A 30 mg/kg at 1, 6, 24 and 48 hours, striatum 3 days after final administration

CCCCCC[C@@H](CCC)C(=O)O [Compound A, (R)-2-propyloctanoic acid]
DOPAC content [1, 2]: 2.97 ± 0.49 µg/g
Dopamine content [1, 2]: 12.17 ± 1.41 µg/g
DOPAC content [1, 3]: 1.30 ± 0.31 µg/g
Dopamine content [1, 3]: 4.13 ± 1.48 µg/g
DOPAC content [1, 4]: 2.07 ± 0.77 µg/g
Dopamine content [1, 4]: 5.45 ± 2.00 µg/g
DOPAC content [1, 5]: 2.26 ± 0.52 µg/g
Dopamine content [1, 5]: 6.75 ± 2.72 µg/g
Dopamine and DOPAC content compared with the group of MPTP alone ([1]; MPTP + compound groups vs MPTP alone, Dunnett's multiple comparison test): significantly increased dopamine and DOPAC content depending on the dose
Adverse effect when used alone ([1]; compound alone in normal animals, data compared with control group): no adverse effect
Death (dogs): no case of death was observed
